According to ChEMBL document CHEMBL1221180, “Metabolic installation of thiols into sialic acid modulates adhesion and stem cell biology” (Nat Chem Biol, 2006):
Active and inactive are the calls of the source. No cut-off for these calls is given here.

Legend:
[1] = test system: Jurkat; test: Induction of human Jurkat cell adhesion assessed as covalent cellular attachment to BSA-coated superaldehyde glass surface at 100 uM after 48 hrs by fluorescence microscopy in absence of maleimide coating; type: functional, cell-based
[2] = test system: Jurkat; test: Modulation of cell surface thiol level in human Jurkat cells at 100 uM after 64 hrs by avidin-FITC staining-based FACS analysis; type: functional
[3] = test system: Lvec; test: Effect on human LVEC cell morphology cultured on gold-coated cover slips at 10 uM measured on day 9 post treatment by DAPI staining-based confocal microscopy; type: functional
[4] = test system: Jurkat; test: Induction of human Jurkat cell adhesion assessed as covalent cellular attachment to maleimide functionalized BSA-coated superaldehyde glass surface at 100 uM after 48 hrs by fluorescence microscopy; type: functional, cell-based
[5] = test system: Jurkat; test: Induction of human Jurkat cell adhesion assessed as spontaneous clustering of cells at 50 uM after 2 days by inverted microscopy; type: functional, cell-based
[6] = test system: Jurkat; test: Increase in cell surface thiol level in human Jurkat cells at 320 uM after 64 hrs by avidin-FITC staining-based FACS analysis relative to untreated control; type: functional
[7] = test system: Jurkat; test: Increase in N-thioglycolylneuraminic acid level in human Jurkat cells at 10 uM after 2 hrs by avidin-FITC staining-based FACS analysis in absence of disulfide reducing agent TCEP relative to untreated control; type: functional
[8] = test system: Jurkat; test: Increase in cell surface thiol level in human Jurkat cells at 160 uM after 64 hrs by avidin-FITC staining-based FACS analysis relative to untreated control; type: functional
[9] = test system: Jurkat; test: Increase in cell surface thiol level in human Jurkat cells at 40 uM after 2 days by avidin-FITC staining-based FACS analysis relative to untreated control; type: functional
[10] = test system: Jurkat; test: Increase in N-thioglycolylneuraminic acid level in human Jurkat cells at 10 uM after 2 hrs by avidin-FITC staining-based FACS analysis in presence of disulfide reducing agent TCEP relative to untreated control; type: functional
[11] = Decrease in human LVEC cell proliferation at 10 uM for 3 days followed by second treatment of 50 uM on day 4 measured on day 9 by nestin immunostaining; type: cell-based; settings: 72 h
[12] = test system: Lvec; test: Increase in N-thioglycolylneuraminic acid level in human LVEC after 7 days by avidin-FITC staining-based FACS analysis relative to untreated control; type: functional, cell-based
[13] = Induction of human LVEC cell differentiation into neural cell lineage cultured on gold-coated cover slips assessed as effect on cytoskeleton distribution at 10 uM measured on day 9 post treatment by DAPI staining-based confocal microscopy; type: functional
[14] = test system: Lvec; test: Mild increase in beta-casein expression in human LVEC cultured on glass surface at 10 uM after 13 days by oregon green 488 phalloidin and DAPI staining; type: functional, cell-based
[15] = test system: Lvec; test: Increase in N-thioglycolylneuraminic acid level in human LVEC at 10 uM after 7 days by avidin-FITC staining-based FACS analysis relative to untreated control; type: functional
[16] = test system: Lvec; test: Translocation of beta-casein into nucleus of human LVEC cultured on gold-coated cover slips at 10 uM after 13 days by oregon green 488 phalloidin and DAPI staining; type: functional, cell-based
[17] = test system: Lvec; test: Increase in beta-casein expression in human LVEC cultured on gold-coated cover slips at 10 uM after 13 days by oregon green 488 phalloidin and DAPI staining; type: functional, cell-based
[18] = test system: Jurkat; test: Cytotoxicity against human Jurkat cells at 100 uM after 48 hrs; type: cell-based
[19] = test system: Lvec; test: Increase in N-thioglycolylneuraminic acid level in human LVEC at 10 uM after 3 days by avidin-FITC staining-based FACS analysis; type: functional, cell-based
[20] = test system: Jurkat; test: Increase in cell surface thiol level in human Jurkat cells at 10 uM after 64 hrs by avidin-FITC staining-based FACS analysis relative to untreated control; type: functional

Q: For CC(=O)OCC(=O)N[C@@H]1[C@@H](OC(C)=O)O[C@H](COC(C)=O)[C@@H](OC(C)=O)[C@@H]1OC(C)=O, which Activity [1] is on record?
A: The Activity was “inactive”.

Q: And the Activity [2]?
A: Its Activity is “inactive”.

Q: And the Activity [3]?
A: The Activity was “inactive”.

Q: What about the Activity [4] of the same molecule?
A: Its Activity is “Active”.

Q: What about the Activity [5] of the same molecule?
A: The Activity was “Active”.

Q: For CC(=O)CCC(=O)N[C@@H]1C(OC(C)=O)O[C@H](COC(C)=O)[C@@H](OC(C)=O)[C@@H]1OC(C)=O (stereo partly specified), which “fold change (FC)” value [6] is on record?
A: Its value is 34.

Q: What does the source list for CC(=O)OC[C@H]1O[C@H](OC(C)=O)[C@@H](NC(=O)CSC(C)=O)[C@@H](OC(C)=O)[C@@H]1OC(C)=O?
A: fold change (FC) [7]: 13; fold change (FC) [8]: 40; fold change (FC) [9]: 14; fold change (FC) [10]: 120; Activity [1]: inactive; Activity [11]: Toxic; Activity [12]: Dose-dependent effect; Activity [13]: Active; fold change (FC) [6]: 34; Activity [14]: Active; fold change (FC) [15]: 15; Activity [16]: Active; Activity [3]: Active; Activity [17]: Active; Activity [4]: Active; Activity [18]: Non-toxic; Activity [5]: Active; Activity [19]: Active; fold change (FC) [20]: 19

Q: With CC(=O)N[C@@H]1C(OC(C)=O)O[C@H](COC(C)=O)[C@@H](OC(C)=O)[C@@H]1OC(C)=O (stereo partly specified) as the molecule, how does the “fold change (FC)” value [6] read?
A: The value was 34.
